Source: patent publication USRE43390E1, “Pleuromutilin derivatives as antimicrobials” (GlaxoSmithKline LLC, priority 1997, dated 2012)

How the values were obtained:
Assay in all cases: antibacterial activity, MIC by standard broth dilution method in microtitre
Type in all cases: cell-based
Escherichla coli DCU = conditions: E.c. = Escherichla coli DCU
Description: (§1) The following Table illustrates the antibacterial activities of representative mutilin 14-esters. Activities are given as minimum inhibitory concentrations in micrograms per milliliter (10^−6 g/ml), and were determined using a standard broth dilution method in microtitre.

[1] = tested on: Staphylococcus aureus Oxford; conditions: S.a. = Staphylococcus aureus Oxford
Description: as §1

[2] = tested on: Morazella catarrhalis Ravasio; conditions: M.c. = Morazella catarrhalis Ravasio
Description: as §1

[3] = tested on: Haemophilius influenzae Q1; conditions: H.i. = Haemophilius influenzae Q1
Description: as §1

[4] = tested on: Streptococcus pneumoniae 1629; conditions: S.p. = Streptococcus pneumoniae 1629
Description: as §1

Compound: C=C[C@]1(C)C[C@@H](OC(=O)CSC23CCN(CC2)CC3)[C@]2(C)[C@H](C)CC[C@]3(CCC(=O)[C@H]32)[C@@H](C)[C@@H]1O [Example 1, Mutilin 14-(quinuclidin-4-yl-sulfanyl)-acetate]
- minimum inhibitory concentrations (Escherichla coli DCU): 16 micrograms per milliliter
- minimum inhibitory concentrations [1]: ≦0.06 micrograms per milliliter
- minimum inhibitory concentrations [2]: ≦0.06 micrograms per milliliter
- minimum inhibitory concentrations [3]: 0.25 micrograms per milliliter
- minimum inhibitory concentrations [4]: ≦0.06 micrograms per milliliter

Compound: C=C[C@]1(C)C[C@@H](OC(=O)CSC2CCN(C)CC2)[C@]2(C)[C@H](C)CC[C@]3(CCC(=O)[C@H]32)[C@@H](C)[C@@H]1O [Example 15, Mutilin-14-(1-methylpiperid-4-ylsulfanyl)-acetate]
- minimum inhibitory concentrations (Escherichla coli DCU): 64 micrograms per milliliter
- minimum inhibitory concentrations [1]: ≦0.06 micrograms per milliliter
- minimum inhibitory concentrations [2]: ≦0.06 micrograms per milliliter
- minimum inhibitory concentrations [3]: 0.5 micrograms per milliliter
- minimum inhibitory concentrations [4]: ≦0.06 micrograms per milliliter

Compound: C=C[C@]1(C)C[C@@H](OC(=O)CSC2CC3CCC(C2)N3C)[C@]2(C)C(C)CC[C@]3(CCC(=O)[C@H]32)[C@@H](C)[C@@H]1O (stereo partly drawn) [Example 50, Mutilin 14-(exo-8-methyl-8-azabicyclo[3.2.1]oct-3-ylsulfanyl)-acetate]
- minimum inhibitory concentrations (Escherichla coli DCU): 32 micrograms per milliliter
- minimum inhibitory concentrations [1]: ≦0.06 micrograms per milliliter
- minimum inhibitory concentrations [2]: ≦0.06 micrograms per milliliter
- minimum inhibitory concentrations [3]: 0.5 micrograms per milliliter
- minimum inhibitory concentrations [4]: ≦0.06 micrograms per milliliter

Compound: C=C[C@]1(C)C[C@@H](OC(=O)CO)[C@]2(C)[C@H](C)CC[C@]3(CCC(=O)[C@H]32)[C@@H](C)[C@@H]1O [Pleuomutilin, Pleuromutilin]
- minimum inhibitory concentrations (Escherichla coli DCU): >64 micrograms per milliliter
- minimum inhibitory concentrations [1]: 2 micrograms per milliliter
- minimum inhibitory concentrations [2]: 0.5 micrograms per milliliter
- minimum inhibitory concentrations [3]: 2 micrograms per milliliter
- minimum inhibitory concentrations [4]: 8 micrograms per milliliter

Compound: C=C[C@]1(C)C[C@@H](OC(=O)CSCCN(CC)CC)[C@]2(C)[C@H](C)CC[C@]3(CCC(=O)[C@H]32)[C@@H](C)[C@@H]1O [Tiamulia, Tiamulin, reference compound]
- minimum inhibitory concentrations (Escherichla coli DCU): >64 micrograms per milliliter
- minimum inhibitory concentrations [1]: 0.25 micrograms per milliliter
- minimum inhibitory concentrations [2]: 0.125 micrograms per milliliter
- minimum inhibitory concentrations [3]: 2 micrograms per milliliter
- minimum inhibitory concentrations [4]: 0.25 micrograms per milliliter
